Consider one substance from patent US7884074B2, “Compounds and methods for prevention and/or treatment of inflammation using the same” (Ikaria Development Subsidiary Two, LLC, priority 2008, dated 2011).

The test system of this assay is RhoA. Description: thrombin induced RhoA activation in HUVEC culture (active RhoA pull-down, Western blot). The class given is cell-based, human. The following applies: 5 U/ml thrombin alone, 5 min. The protocol:
The biological effect of the compounds was established in a model using thrombin induced RhoA activation in human umbilical vein endothelial cell (HUVEC) culture.
HUVEC are grown to confluence under standard conditions. Before induction of Rho activity HUVEC were starved for 4 h by using IMDM (Gibco) without growth factor and serum supplements. After the starvation period, 5 U/ml Thrombin (Calbiochem) or 5 U thrombin plus 50 μg/ml of test compound was added to the starvation medium for 1, 5 and 10 min. Active RhoA was isolated using Rho Assay Reagent from Upstate according to manufactures instructions. Isolates were separated on a 15% polyacrylamide gel and blotted on Nitrocellulose-Membrane (Bio-Rad). RhoA was detected by using Anti-Rho (-A, -B, -C), clone55 from Upstate (1:500).
In general terms: In western blotting, separated proteins are transferred to a membrane and probed.

As to thrombin, the “Relative RhoA stimulation compared to unstimulated control” value is on record as 5.6.
